Source: US20200060276A1, “THIAZOLE COMPOUND AND HERBICIDE” (OAT Agrio Co., Ltd., priority 2017, published 2020)

Columns and labels:
Type in all cases: in vivo
[1] = system: Echinochloa crus-galli (L.) P. Beauv. var. formosensis Ohwi; experiment: Test for Herbicidal Effect in Flooding Treatment (#1), ECHDG; conditions: flooding treatment at seeding, dose 2 kg/ha, visual observation on day 21
Method in brief: (§1)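 Visual scores from 0 (<10% inhibition) to 5 (≥90% or complete withering) were taken 21 days after treatment of glasshouse-grown plants. Seeds were sown in soil flooded for 24 h beforehand, and compound was applied dropwise onto the surface at 2 kg/ha as an acetone solution diluted in water with Tween 80.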

Scirpus juncoides = experiment: Test for Herbicidal Effect in Flooding Treatment (#1), SCIJU; conditions: flooding treatment at seeding, dose 2 kg/ha, visual observation on day 21
Method in brief: as §1

[2] = system: Echinochloa crus-galli (L.) P. Beauv. var. formosensis Ohwi; experiment: Test for Herbicidal Effect in Flooding Treatment (#2), ECHDG at 2-2.5 leaf stage; conditions: flooding treatment at 2-2.5 leaf stage, dose 0.2 kg/ha, visual observation on day 21
Method in brief: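 Scoring is a visual 0–5 scale of growth inhibition (0 below 10%, 5 at 90% or more or full withering), taken 21 days after treatment in a glasshouse. Dose was 0.2 kg/ha, applied as acetone/Tween 80 aqueous solution onto flooded soil once seedlings reached the 2–2.5 leaf stage.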

Cyperus microiria = experiment: Test for Herbicidal Effect in Flooding Treatment (#1), CYMIC; conditions: flooding treatment at seeding, dose 2 kg/ha, visual observation on day 21
Method in brief: as §1

Monochoria vaginalis = experiment: Test for Herbicidal Effect in Flooding Treatment (#1), MONVA; conditions: flooding treatment at seeding, dose 2 kg/ha, visual observation on day 21
Method in brief: as §1

Row | SMILES | ECHDG #1 herbicidal effect (growth inhibition grade) [1] | SCIJU #1 herbicidal effect (growth inhibition grade) (Scirpus juncoides) | ECHDG (2-2.5L) #2 herbicidal effect (growth inhibition grade) [2] | CYMIC #1 herbicidal effect (growth inhibition grade) (Cyperus microiria) | MONVA #1 herbicidal effect (growth inhibition grade) (Monochoria vaginalis)
1 | COc1cccc(CS(=O)(=O)c2ncc(Cl)s2)c1 [Compound 1C-65] | 5 (Growth inhibition effect is equal to or greater than 90%, or complete withering is achieved) | 5 (Growth inhibition effect is equal to or greater than 90%, or complete withering is achieved) | 5 (Growth inhibition effect is equal to or greater than 90%, or complete withering is achieved) | 5 (Growth inhibition effect is equal to or greater than 90%, or complete withering is achieved) | 5 (Growth inhibition effect is equal to or greater than 90%, or complete withering is achieved)
2 | COc1cccc(CS(=O)(=O)c2ncc(Cl)s2)c1Cl [Compound 1C-66] | 5 (Growth inhibition effect is equal to or greater than 90%, or complete withering is achieved) | 5 (Growth inhibition effect is equal to or greater than 90%, or complete withering is achieved) | 4 (Growth inhibition effect is equal to or greater than 70%, and less than 90%) | 5 (Growth inhibition effect is equal to or greater than 90%, or complete withering is achieved) | 5 (Growth inhibition effect is equal to or greater than 90%, or complete withering is achieved)
3 | COc1ccc(F)c(CS(=O)(=O)c2ncc(Cl)s2)c1 [Compound 1C-69] | 5 (Growth inhibition effect is equal to or greater than 90%, or complete withering is achieved) | 5 (Growth inhibition effect is equal to or greater than 90%, or complete withering is achieved) | 4 (Growth inhibition effect is equal to or greater than 70%, and less than 90%) | 5 (Growth inhibition effect is equal to or greater than 90%, or complete withering is achieved) | 5 (Growth inhibition effect is equal to or greater than 90%, or complete withering is achieved)
4 | COc1ccc(Cl)c(CS(=O)(=O)c2ncc(Cl)s2)c1 [Compound 1C-70] | 5 (Growth inhibition effect is equal to or greater than 90%, or complete withering is achieved) | 5 (Growth inhibition effect is equal to or greater than 90%, or complete withering is achieved) | 4 (Growth inhibition effect is equal to or greater than 70%, and less than 90%) | 5 (Growth inhibition effect is equal to or greater than 90%, or complete withering is achieved) | 5 (Growth inhibition effect is equal to or greater than 90%, or complete withering is achieved)
5 | CCOc1cccc(CS(=O)(=O)c2ncc(Cl)s2)c1F [Compound 1C-75] | 5 (Growth inhibition effect is equal to or greater than 90%, or complete withering is achieved) | 5 (Growth inhibition effect is equal to or greater than 90%, or complete withering is achieved) | 4 (Growth inhibition effect is equal to or greater than 70%, and less than 90%) | 5 (Growth inhibition effect is equal to or greater than 90%, or complete withering is achieved) | 5 (Growth inhibition effect is equal to or greater than 90%, or complete withering is achieved)
6 | CCOc1cc(CS(=O)(=O)c2ncc(Cl)s2)ccc1Cl [Compound 1C-77] | 5 (Growth inhibition effect is equal to or greater than 90%, or complete withering is achieved) | 5 (Growth inhibition effect is equal to or greater than 90%, or complete withering is achieved) | 3 (Growth inhibition effect equal to or greater than 50%, and less than 70%) | 5 (Growth inhibition effect is equal to or greater than 90%, or complete withering is achieved) | 5 (Growth inhibition effect is equal to or greater than 90%, or complete withering is achieved)
7 | CCOc1cc(Cl)cc(CS(=O)(=O)c2ncc(Cl)s2)c1 [Compound 1C-78] | 5 (Growth inhibition effect is equal to or greater than 90%, or complete withering is achieved) | 5 (Growth inhibition effect is equal to or greater than 90%, or complete withering is achieved) | 5 (Growth inhibition effect is equal to or greater than 90%, or complete withering is achieved) | 5 (Growth inhibition effect is equal to or greater than 90%, or complete withering is achieved) | 5 (Growth inhibition effect is equal to or greater than 90%, or complete withering is achieved)
8 | CCOc1cc(CS(=O)(=O)c2ncc(Cl)s2)cc(C(F)(F)F)c1 [Compound 1C-79] | 5 (Growth inhibition effect is equal to or greater than 90%, or complete withering is achieved) | 5 (Growth inhibition effect is equal to or greater than 90%, or complete withering is achieved) | 2 (Growth inhibition effect is equal to or greater than 30%, and less than 50%) | 5 (Growth inhibition effect is equal to or greater than 90%, or complete withering is achieved) | 5 (Growth inhibition effect is equal to or greater than 90%, or complete withering is achieved)
9 | CCOc1c(F)ccc(CS(=O)(=O)c2ncc(Cl)s2)c1F [Compound 1C-81] | 5 (Growth inhibition effect is equal to or greater than 90%, or complete withering is achieved) | 5 (Growth inhibition effect is equal to or greater than 90%, or complete withering is achieved) | 5 (Growth inhibition effect is equal to or greater than 90%, or complete withering is achieved) | 5 (Growth inhibition effect is equal to or greater than 90%, or complete withering is achieved) | 5 (Growth inhibition effect is equal to or greater than 90%, or complete withering is achieved)
10 | CCOc1ccc(F)c(CS(=O)(=O)c2ncc(Cl)s2)c1F [Compound 1C-82] | 5 (Growth inhibition effect is equal to or greater than 90%, or complete withering is achieved) | 5 (Growth inhibition effect is equal to or greater than 90%, or complete withering is achieved) | 5 (Growth inhibition effect is equal to or greater than 90%, or complete withering is achieved) | 5 (Growth inhibition effect is equal to or greater than 90%, or complete withering is achieved) | 5 (Growth inhibition effect is equal to or greater than 90%, or complete withering is achieved)
11 | CCOc1cc(CS(=O)(=O)c2ncc(Cl)s2)cc(F)c1F [Compound 1C-83] | 5 (Growth inhibition effect is equal to or greater than 90%, or complete withering is achieved) | 5 (Growth inhibition effect is equal to or greater than 90%, or complete withering is achieved) | 4 (Growth inhibition effect is equal to or greater than 70%, and less than 90%) | 5 (Growth inhibition effect is equal to or greater than 90%, or complete withering is achieved) | 5 (Growth inhibition effect is equal to or greater than 90%, or complete withering is achieved)
12 | COc1ccc(CS(=O)(=O)c2ncc(Cl)s2)c(F)c1 [Compound 1C-88] | 5 (Growth inhibition effect is equal to or greater than 90%, or complete withering is achieved) | 5 (Growth inhibition effect is equal to or greater than 90%, or complete withering is achieved) | 4 (Growth inhibition effect is equal to or greater than 70%, and less than 90%) | 5 (Growth inhibition effect is equal to or greater than 90%, or complete withering is achieved) | 5 (Growth inhibition effect is equal to or greater than 90%, or complete withering is achieved)
13 | COc1cc(Cl)c(CS(=O)(=O)c2ncc(Cl)s2)c(Cl)c1 [Compound 1C-91] | 5 (Growth inhibition effect is equal to or greater than 90%, or complete withering is achieved) | 5 (Growth inhibition effect is equal to or greater than 90%, or complete withering is achieved) | 5 (Growth inhibition effect is equal to or greater than 90%, or complete withering is achieved) | 5 (Growth inhibition effect is equal to or greater than 90%, or complete withering is achieved) | 5 (Growth inhibition effect is equal to or greater than 90%, or complete withering is achieved)
